From patent publication US20050250726A1, “Immunostimulatory nucleic acid for treatment of non-allergic inflammatory diseases” (University of Iowa Research Foundation, priority 2001, published 2005)
Strand notation (5' to 3'): a small letter for the sugar, then the base; units joined by * are phosphorothioate-linked, units joined directly phosphodiester-linked; [ ] holds rarer units or linkages, { } end groups; capitals alone tell only the bases. d = 2'-deoxy (DNA)

How the values were obtained:
[1] = system: YAC-1 target cells; test: NK cytotoxicity assay, 4-h 51Cr-release against YAC-1 target cells; type: cell-based, mouse; settings: for NK activity, Mouse Spleen Cells (LU/10^6): B cell-depleted C57BL/6 spleen cells, 18 h, IL-2 100 U/mL, ODN 1585 5 μg/mL, SC-58236 0.25 μg/mL, PGE2 0.1 μg/mL, 1 LU = 30% 51Cr release; for effect on NK lytic activity induced by CpG DNA: B cell-depleted murine spleen cells stimulated with ODN 1585
Procedure: Cytotoxicity assay. Spleen cells from C57BL/6 mice were depleted of B cells using paramagnetic beads coated with goat anti-mouse Ig as previously described. Ballas Z K et al. (1990) J Immunol 145:1039-45; Ballas Z K et al. (1993) J Immunol 150:17-30. […] […] Cultures were harvested at 18 h and the cells were used as effectors in a standard 4-h ^51Cr-release assay against YAC-1 target cells labeled with Na^51CrO4 (Amersham Life Science, Arlington Heights, Ill.) as described previously. Ballas Z K et al. (1990) J Immunol 145:1039-45; Ballas Z K et al. (1993) J Immunol 150:17-30; Ballas Z K et al. (1990) J Allergy Clin Immunol 85:453-39. One lytic unit (LU) was defined as the number of the cells needed to exert 30% specific lysis.
It has previously been reported that certain CpG DNA sequences can elicit strong lytic activity in NK cells (Ballas Z K et al. (1996) J Immunol 157:1840-45), whereas exogenous PGE2 is known to inhibit the activity of NK cell killing (Kanar M C et al. (1988) J Clin Immunol 8:69-79; Young M R et al. (1986) J Natl Cancer Inst 77:425-29). B cell-depleted murine spleen cells were stimulated with the stimulatory ODN 1585 in the presence or absence of a COX inhibitor.

[2] = system: BALB/c mice; test: Serum IFN-γ in vivo after COX inhibitor and ODN 1826 injection; set-up: species or system mouse; settings: SC-58236 20 mg/kg i.p. 1 h before 30 μg ODN 1826, serum 5 h post ODN, FIG. 3
Procedure: In vivo experiments. BALB/c mice were injected i.p. with 0.2 ml of diluent or SC-58236 (20 mg/kg). One hour later, mice were injected with 30 μg of ODN 1826 or PBS. Five hours later, the mice were anaesthetized with Avertin (Aldrich, Milwaukee, Wis.) and blood was obtained from the retro-orbital plexus. The blood was allowed to clot on ice for 1 h and centrifuged at 10,000 r.p.m. for 10 min. The serum was used for IFN-γ determination by ELISA (as described above).
COX inhibitors augment IFN-γ production in vivo. To determine whether COX inhibitors could also enhance the immune stimulatory effects of CpG-DNA in vivo, mice were treated with COX inhibitors (piroxicam or SC-58236) and subsequently injected with stimulatory ODN 1826. Serum IFN-γ levels were quantified 5 h post ODN injection.

[3] = system: BALB/c mouse spleen cells; test: IFN-γ secretion from CpG DNA-stimulated spleen cells (ELISA); type: cell-based; settings: for IFN-γ: BALB/c spleen cells preincubated 30 min with SC-58236 0.125 μM, PGE2 0.1 μM, 2B5 or control antibody 6.7 μg/mL, then CpG ODN 1826 0.3 μg/mL for 24 h, supernatant ELISA
Procedure: Cell culture conditions. RAW 264.7 cells and murine spleen cells were cultured in RPMI 1640 supplemented with 10% FCS, 2 mM L-glutamine, 0.05 mM 2-mercaptoethanol, penicillin (100 U/ml) and streptomycin (100 U/ml) in 12-well tissue culture plates (Costar, Corning, N.Y.). Cells were incubated in media alone or media supplemented with ODN. Supernatants from triplicate cultures were harvested and stored at −70° C. before analysis for PG or cytokine concentration. Cells were subsequently harvested for either RNA or protein isolation. In some cultures, ODN-stimulated spleen cells were incubated in the presence of PGE2 (0.1 μM), piroxicam (16 μM), SC-58236 (0.125 μM), anti-PGE2 antibody 2B5 (6.7 μg/ml), or isotype antibody MOPC21 (6.7 μg/ml). For quantitative analysis of macrophage PG production, RAW 264.4 cells were cultured at 1×10^5 cells/ml in media or media with ODN (3 μg/ml). After 24 h of culture the supernatant was removed and cells were incubated in PBS supplemented with arachidonic acid (10 μM).
Cytokine quantification. IFN-γ detection was performed using a cytokine ELISA kit from PharMingen (San Diego, Calif.). Immulon-1B microtiter plates were obtained from Dynatech (Chantilly, Calif.). After incubation with peroxidase substrate (tetramethylbenzidine) the plates were read at 650 nm on a microplate reader (Cambridge Technology, Watertown, Mass.).
COX inhibitors enhance IFN-γ secretion induced by CpG DNA. CpG DNA is known to elicit strong Th1-like immune responses both in vitro and in vivo. Klinman D M et al. (1996) Proc Natl Acad Sci USA 93:2879-83. In contrast, PGE2, which is induced by CpG DNA, can inhibit Th1 responses. Betz M et al. (1991) J Immunol 146:108-13. Murine spleen cells were stimulated with CpG DNA in the presence of piroxicam, a non-selective COX inhibitor, or SC-58236, a selective inhibitor of COX-2, and quantified IFN-γ production. […] Neither COX inhibitor alone stimulated IFN-γ secretion.
Inhibition of PGE2 synthesis plays an important role in enhancing IFN-γ secretion. The blockade of the COX enzyme will inhibit synthesis of multiple PG (e.g., PGE2, PGD2 and dPGJ2), all of which potentially can inhibit Th1 immune responses. To assess the role of PGE2 in the modulation of IFN-γ secretion elicited by CpG ODN, a neutralizing antibody (2B5) specific for PGE2 was added into CpG DNA-stimulated spleen cell-cultures. […] The enhancement was similar in magnitude to that observed when COX inhibitors were added to the cultures (Table 3).

[4] = system: COX-2 protein; test: Western blotting of COX-2 protein in RAW 264.7 cells; type: cell-based, murine
Procedure: Western blotting. Protein was isolated from cultured cells by resuspending in lysis buffer [50 mM Tris (hydroxymethyl) aminomethane, pH 7.5, 150 mM NaCl, 100 μg/ml PMSF, 1 μg/ml aprotinin, 1 μg/ml leupeptin, 1 mM diethyldithiocarbamic acid, 1% NP-40 and 1% sodium deoxycholate]. Cells were lysed by sonication (20 s, 4° C.). Debris was eliminated by centrifugation (15 min, 1000 g). Protein concentration was measured using a commercial reagent based on BCA staining (Pierce, Rockford, Ill.), using BSA as an internal standard. Equal amounts of cellular protein were loaded onto a 10% polyacrylamide gel and separated by electrophoresis (200 V for 45 min). Proteins were then transferred to nitrocellulose (100 V for 1 h) and the membrane was blocked with 5% non-fat dry milk. The nitrocellulose was then incubated with a rabbit polyclonal primary antibody (anti-COX-2, 1:1000, Cayman; anti-COX-1, 1:1000, Santa Cruz) overnight at 4° C. Antibody labeling was detected using enhanced chemiluminescence (ECL; Amersham) as per the manufacturer's instructions. Specificity of the anti-cyclooxygenase antibody was confirmed with the use of ram seminal vesicle PGHS-1 (COX-1, Oxford Biomedical Research, Oxford, Mich.) and sheep placenta PGHS-2 (COX-2, Cayman).
Films and photographs of RPA or Western blots were scanned in at 6000 DPI using an Epson Expression 1600 scanner. […]

[5] = system: COX-2 mRNA; test: RNase protection assay for COX-2 mRNA in RAW 264.7 macrophages; type: cell-based, murine; settings: ODN 3 μg/ml; for increase in COX-2 mRNA: 0-24 h
Procedure: RNase protection assay. A murine COX-2 cDNA fragment (nucleotides 205-505; GenBank accession no. M88242) was synthesized by RT-PCR using mouse brain RNA as a template and cloned into pGEM-4. Fragments of the RPL32-4A gene were also cloned into pGEM-4. Dudov K P et al. (1984) Cell 37:457-68. L32 served as an internal loading control. RNase protection assay (RPA) for the detection of COX-2 was performed as previously described. Stadler A et al. (1998) In: Neurodegeneration Methods and Protocols, Harry J and Tilson H A, eds., Humana Press, Totowa, N.J., p. 53. Briefly, for the synthesis of a ^32P-radiolabeled anti-sense RNA probe, equimolar mixtures of the linearized COX-2 and L32 templates were used. Hybridization reactions were performed overnight at 56° C. Following RNase digestion, the RNA duplexes were isolated by electrophoresis in a standard 7.5% acrylamide/12 M urea/0.5% TBE sequencing gel. Dried gels were placed on BMR filmhand were exposed at −70° C.
Films and photographs of RPA or Western blots were scanned in at 6000 DPI using an Epson Expression 1600 scanner. Densitometric analysis was performed using Vtrace (developed at the University of Iowa Image Analysis Facility) operating on a SGI O2 Workstation. Average and integrated OD measurements were made on user-selected regions. A Kodak photographic step tablet was used to calibrate optical density.
Immunostimulatory ODN induce COX-2 mRNA. RAW 264.7 macrophages were incubated with media or ODN (3 μg/ml) for varying time periods (0, 2, 4, 6 and 24 h) and RNA isolated for COX-2 expression using RPA.

Compound | NK activity, Mouse Spleen Cells (LU/10^6) [1] | effect on NK lytic activity induced by CpG DNA [1] | IFN-γ [3] | COX-2 protein induction [4] | increase in COX-2 mRNA [5] | further results
ggGGTCAACGTTGAgggggG (dG*dG*dGdGdTdCdAdAdCdGdTdTdGdAdG*dG*dG*dG*dG*dG) [ODN 1585, immunostimulatory CpG ODN] | 7.3 LU/10^6 |  |  |  |  | 
NS(=O)(=O)c1ccc(-n2nc(C(F)(F)F)cc2-c2ccc(Cl)cc2)cc1 [SC-58236] | 0.0 LU/10^6 | enhanced the NK activity | 0 ± 2 pg/mL |  |  | increase in serum IFN-γ above mice injected with ODN 1826 alone [2]: 4.6 fold; enhancement of IFN-γ secretion from CpG DNA-stimulated spleen cells ([3]; inhibitor added to CpG DNA-stimulated murine spleen cells): 2 fold
ODN 1982: non-stimulatory control ODN (dT*dC*dC*dA*dG*dG*dA*dC*dT*dT*dC*dT*dC*dT*dC*dA*dG*dG*dT*dT) |  |  |  | no induction | no significant increase | 
ODN 1826 |  |  | 1960 ± 247 pg/mL | marked induction | effectively increased COX-2 mRNA | COX-2 mRNA levels over the 24-h time period [5]: remained elevated; time to induction of COX-2 mRNA expression [5]: ≤ 2 h; COX-2 mRNA, 6 h level fold greater than 0 h ([5]; 6 h): 21 fold
CCCCC[C@H](O)/C=C/[C@H]1[C@H](O)CC(=O)[C@@H]1C/C=C\CCCC(=O)O [PGE2, prostaglandin E2] | 0.0 LU/10^6 | abolished the lytic activity | 0 ± 4 pg/mL |  |  | 
